Common to all, as to type: functional
For assay [1], the system named is Mus musculus. Briefly: Analgesic activity in ICR mouse assessed as pain threshold variation at 20 umol/kg, ip administered as single dose measured after 30 mins by tail flick test relative to control.
Assay [2] has as its system Mus musculus. Briefly: Analgesic activity in ICR mouse assessed as pain threshold variation at 20 umol/kg, ip administered as single dose measured after 60 mins by tail flick test relative to control.
In assay [3] the test system is Mus musculus. Briefly: Analgesic activity in ICR mouse assessed as pain threshold variation at 20 umol/kg, ip administered as single dose measured after 90 mins by tail flick test relative to control.
Assay [4] concerns Mus musculus. Briefly: Analgesic activity in ICR mouse assessed as pain threshold variation at 20 umol/kg, ip administered as single dose measured after 120 mins by tail flick test relative to control.
Assay [5] has as its system Mus musculus. Briefly: Analgesic activity in ICR mouse assessed as pain threshold variation at 20 umol/kg, ip administered as single dose measured after 150 mins by tail flick test relative to control.
In assay [6] the test system is Mus musculus. As to the kind of experiment: Analgesic activity in ICR mouse assessed as pain threshold variation at 20 umol/kg, ip administered as single dose measured after 180 mins by tail flick test relative to control.

`CN1CC[C@]23c4c5ccc(O)c4O[C@H]2[C@@H](O)C=C[C@H]3[C@H]1C5` [MORPHINE]: the Activity is listed as 147% with Mus musculus [1]; 177.6% in the assay with Mus musculus [2]; 122.7% in the assay on Mus musculus [3]; 64.9% in the assay on Mus musculus [4]; 36.7% in the assay on Mus musculus [5]; 32.9% with Mus musculus [6].

For the origin of these results see ChEMBL document CHEMBL1152546, “N-[2-chloro-9H-purin-6-yl]-N-cyclopropylglycylamino acids and derivatives: synthesis, evaluation as a class of novel analgesics, and 3D QSAR analysis” (2009).
